Experimental data published in US10723998B2, “Application of ethyl p-methoxycinnamate and derivatives thereof in maintaining self-renewal and pluripotency of stem cells” (NORTHEAST NORMAL UNIVERSITY, priority 2015, dated 2020).

Test system: Oct4 promoter
Assay: Luciferase reporter gene assay of derivatives on Oct4 expression (co-transfection with pCMV-β-gal) in P19 cells
Type: cell-based, mouse
Conditions: 5 μg/mL, 12-24 h, DMSO control, FIG. 6
Procedure: The effect of derivatives of ethyl p-methoxycinnamate on Oct4 expression was assayed by a luciferase reporter gene method, the derivatives including diethyl 4-methoxybenzalmalonate, ethyl 3-(3-methoxy-4-methoxycarbonylmethoxyphenyl)acrylate, diethyl 4-acetoxybenzylidenemalonate, chlorogenic acid, ethyl cinnamate, 3-cinnamoyloxypropyl 3-propylacrylate, ethyl 2-cyano-3,3-diphenylacrylate, ethyl 2,6-dichlorocinnamate, diethyl 4-chlorobenzylidenemalonate, ethyl 4-aminocinnate, ethyl 3-cyanocinnamate, ethyl 4-nitrocinnamate, 3-[3-(4-methoxyphenyl)acryloyloxymethyl]benzyl 3-(4-methoxyphenyl)acrylate, 4-[3-(4-methoxyphenyl)acryloyloxy]butyl-2-ynyl 3-(4-methoxyphenyl)acrylate, ethyl indole-2-carboxylate, and ethyl 6-methoxy-1-benzofuran-2-carboxylate.
One day before transfection, mouse teratoma cells P19 were inoculated into a 24-well cell culture plate at a density of 1×10^5 cells/well, to make the cells grown to about 80% before transfection. A liposomal transfection reagent Entranster™-D from Engreen company was used to perform the transfection according to the instructions, to co-transfect the P19 cells with target plasmid (PGL3-Oct4P-Basic or pGL3-Basic) and reference plasmid (pCMV-β-gal). The total amount of the plasmid used for transfection was 1 μg/well (the target plasmid:the reference plasmid=2:1). The plasmid was added to 25 μL of serum-free DMEM culture medium, and fully mixed. 3 μL of the transfection reagent was then added to another 25 μL of serum-free DMEM culture medium, mixed well, and allowed to stand for 5 min. The DMEM culture medium containing the transfection reagent was then added to the DMEM culture medium containing the plasmid, and the mixture was immediately pipetted more than 10 times, and allowed to stand at room temperature for 30 min. 250 μL of DMEM culture medium containing 10% fetal calf serum was added to the mixed solution, and gently mixed well. The original cell culture medium in the 24-well plate was discarded, and replaced with the above mixed solution. After being cultured for 4-6 h in a 5% CO2 cell incubator at 37° C., the original culture medium was absorbed and removed, and replaced with 500 μL of DMEM culture medium containing 10% fetal calf serum. […] After subsequent continuous culture for 12-24 h, the cells were lysed, and the luciferase activity was assayed.
Luciferase Reporter Assay System and FluoStar Optima were used to assay the luciferase activity of the transfected cell lysis solution. To 45 μL of the cell lysis solution was added 5 μL of Assay Cocktail reagent, after they were mixed well, 100 μL of Luciferin reaction solution was added, and fluorescence counting in 2 s was measured using FluoStar Optima instrument, which reflected the activity level of the studied plasmid reporter genes expressing firefly luciferase. To another 20 μL of the cell lysis solution was added 37.5 μL of β-gal Buffer followed by 12.5 μL of ONPG (6 mg/mL), and after they were mixed well, they were allowed to stand at 37° C. for 30 min. An absorption value at 450 nm was assayed using a microplate reader, which reflected the activity level of internal reference plasmid pCMV-β-gal expressing β-galactosidase. The ratio between the activity of the firefly luciferase and the activity of the β-galactosidase (β-gal) excluded the difference of the sample transfection efficiency, and could relatively objectively reflect the difference of promoter activity between samples. The relative luciferase activity of different samples was calculated through the following equation: […]

COc1ccc(C=CC(=O)OCc2cccc(COC(=O)C=Cc3ccc(OC)cc3)c2)cc1 [3-[3-(4-methoxyphenyl)acryloyloxymethyl]benzyl 3-(4-methoxyphenyl)acrylate]
effect of derivatives on the activity of the Oct4 promoter (relative luciferase activity): have the effect of enhancing the activity of the Oct4 promoter

CCCC=CC(=O)OCCCOC(=O)C=Cc1ccccc1 [3-cinnamoyloxypropyl 3-propylacrylate]
effect of derivatives on the activity of the Oct4 promoter (relative luciferase activity): have the effect of enhancing the activity of the Oct4 promoter

COc1ccc(C=CC(=O)OCC#CCOC(=O)C=Cc2ccc(OC)cc2)cc1 [4-[3-(4-methoxyphenyl)acryloyloxy]butyl-2-ynyl 3-(4-methoxyphenyl)acrylate]
effect of derivatives on the activity of the Oct4 promoter (relative luciferase activity): have the effect of enhancing the activity of the Oct4 promoter

O=C(/C=C/c1ccc(O)c(O)c1)O[C@@H]1C[C@](O)(C(=O)O)C[C@@H](O)[C@H]1O [chlorogenic acid]
effect of derivatives on the activity of the Oct4 promoter (relative luciferase activity): have the effect of enhancing the activity of the Oct4 promoter

CCOC(=O)C(=Cc1ccc(OC(C)=O)cc1)C(=O)OCC [diethyl 4-acetoxybenzylidenemalonate]
effect of derivatives on the activity of the Oct4 promoter (relative luciferase activity): have the effect of enhancing the activity of the Oct4 promoter

CCOC(=O)C(C#N)=C(c1ccccc1)c1ccccc1 [ethyl 2-cyano-3,3-diphenylacrylate]
effect of derivatives on the activity of the Oct4 promoter (relative luciferase activity): have the effect of enhancing the activity of the Oct4 promoter

CCOC(=O)C=Cc1ccccc1 [ethyl cinnamate]
effect of derivatives on the activity of the Oct4 promoter (relative luciferase activity): have the effect of enhancing the activity of the Oct4 promoter

CCOC(=O)c1cc2ccccc2[nH]1 [ethyl indole-2-carboxylate]
effect of derivatives on the activity of the Oct4 promoter (relative luciferase activity): have the effect of enhancing the activity of the Oct4 promoter
